Measurements from ChEMBL document CHEMBL3045679, “Microwave-assisted synthesis and pharmacological studies of novel 5-deazaalloxazine derivatives” (2012).
Values after ≈ are worked out from the molar mass of the structure shown. Active and inactive are the calls of the source. No cut-off for these calls is given here.

How the values were obtained:
Lipomyces lipofer [1] = test: Antifungal activity against Lipomyces lipofer NCIM 3252 at 1000 ug/disk after 72 hr by disk diffusion method; type: functional; conditions: NCIM 3252, 72 h, read-out: DIZ
Lipomyces lipofer [2] = test: Antifungal activity against Lipomyces lipofer NCIM 3252 at 500 ug/disk after 72 hr by disk diffusion method; type: functional; conditions: NCIM 3252, 72 h, read-out: DIZ
Candida albicans [3] = test: Antifungal activity against Candida albicans NCIM 3471 at 1000 ug/disk after 72 hr by disk diffusion method; type: functional; conditions: NCIM 3471, 72 h, read-out: DIZ
Candida albicans [4] = test: Antifungal activity against Candida albicans NCIM 3471 at 500 ug/disk after 72 hr by disk diffusion method; type: functional
Rhodotorula mucilaginosa [5] = test: Antifungal activity against Rhodotorula mucilaginosa NCIM 3174 at 1000 ug/disk after 72 hr by disk diffusion method; type: functional; conditions: NCIM 3174, 72 h, read-out: DIZ
Rhodotorula mucilaginosa [6] = test: Antifungal activity against Rhodotorula mucilaginosa NCIM 3174 at 500 ug/disk after 72 hr by disk diffusion method; type: functional; conditions: NCIM 3174, 72 h, read-out: DIZ
Aspergillus flavus [7] = test: Antifungal activity against Aspergillus flavus NCIM 535 at 1000 ug/disk after 72 hr by disk diffusion method; type: functional; conditions: NCIM 535, 72 h, read-out: DIZ
Aspergillus flavus [8] = test: Antifungal activity against Aspergillus flavus NCIM 535 at 500 ug/disk after 72 hr by disk diffusion method; type: functional; conditions: NCIM 535, 72 h, read-out: DIZ
Aspergillus niger [9] = test: Antifungal activity against Aspergillus niger NCIM 1196 at 1000 ug/disk after 72 hr by disk diffusion method; type: functional; conditions: NCIM 1196, 72 h, read-out: DIZ
Aspergillus niger [10] = test: Antifungal activity against Aspergillus niger NCIM 1196 at 500 ug/disk after 72 hr by disk diffusion method; type: functional
Penicillium chrysogenum [11] = test: Antifungal activity against Penicillium chrysogenum NCIM 707 at 1000 ug/disk after 72 hr by disk diffusion method; type: functional; conditions: NCIM 707, 72 h, read-out: DIZ
Penicillium chrysogenum [12] = test: Antifungal activity against Penicillium chrysogenum NCIM 707 at 500 ug/disk after 72 hr by disk diffusion method; type: functional; conditions: NCIM 707, 72 h, read-out: DIZ
Streptomyces albus [13] = test: Antibacterial activity against Streptomyces albus NCIM 2178 at 1000 ug/disk after 24 hr by disk diffusion method; type: functional; conditions: NCIM 2178, 24 h, read-out: DIZ
Streptomyces albus [14] = test: Antibacterial activity against Streptomyces albus NCIM 2178 at 500 ug/disk after 24 hr by disk diffusion method; type: functional, organism-based
Bacillus cereus [15] = test: Antibacterial activity against Bacillus cereus NCIM 2155 at 1000 ug/disk after 24 hr by disk diffusion method; type: functional; conditions: NCIM 2155, 24 h, read-out: DIZ
Bacillus cereus [16] = test: Antibacterial activity against Bacillus cereus NCIM 2155 at 500 ug/disk after 24 hr by disk diffusion method; type: functional; conditions: NCIM 2155, 24 h, read-out: DIZ
Bacillus subtilis [17] = test: Antibacterial activity against Bacillus subtilis NCIM 2063 at 1000 ug/disk after 24 hr by disk diffusion method; type: functional; conditions: NCIM 2063, 24 h, read-out: DIZ
Bacillus subtilis [18] = test: Antibacterial activity against Bacillus subtilis NCIM 2063 at 500 ug/disk after 24 hr by disk diffusion method; type: functional
Klebsiella aerogenes [19] = test: Antibacterial activity against Enterobacter aerogenes NCIM 2239 at 1000 ug/disk after 24 hr by disk diffusion method; type: functional; conditions: NCIM 2239, 24 h, read-out: DIZ
Klebsiella aerogenes [20] = test: Antibacterial activity against Enterobacter aerogenes NCIM 2239 at 500 ug/disk after 24 hr by disk diffusion method; type: functional; conditions: NCIM 2239, 24 h, read-out: DIZ
Pseudomonas aeruginosa [21] = test: Antibacterial activity against Pseudomonas aeruginosa NCIM 2200 at 1000 ug/disk after 24 hr by disk diffusion method; type: functional; conditions: NCIM 2200, 24 h, read-out: DIZ
Pseudomonas aeruginosa [22] = test: Antibacterial activity against Pseudomonas aeruginosa NCIM 2200 at 500 ug/disk after 24 hr by disk diffusion method; type: functional; conditions: NCIM 2200, 24 h, read-out: DIZ
Escherichia coli [23] = test: Antibacterial activity against Escherichia coli NCIM 2065 at 1000 ug/disk after 24 hr by disk diffusion method; type: functional; conditions: NCIM 2065, 24 h, read-out: DIZ
Escherichia coli [24] = test: Antibacterial activity against Escherichia coli NCIM 2065 at 500 ug/disk after 24 hr by disk diffusion method; type: functional
Bacillus subtilis [25] = test: Antibacterial activity against Bacillus subtilis NCIM 2063 after 24 hr by broth dilution assay; type: functional; conditions: NCIM 2063, 24 h
Klebsiella aerogenes [26] = test: Antibacterial activity against Enterobacter aerogenes NCIM 2239 after 24 hr by broth dilution assay; type: functional; conditions: NCIM 2239, 24 h
Pseudomonas aeruginosa [27] = test: Antibacterial activity against Pseudomonas aeruginosa NCIM 2200 after 24 hr by broth dilution assay; type: functional; conditions: NCIM 2200, 24 h
Escherichia coli [28] = test: Antibacterial activity against Escherichia coli NCIM 2065 after 24 hr by broth dilution assay; type: functional; conditions: NCIM 2065, 24 h
Lipomyces lipofer [29] = test: Antifungal activity against Lipomyces lipofer NCIM 3252 after 72 hr by broth dilution assay; type: functional; conditions: NCIM 3252, 72 h
Candida albicans [30] = test: Antifungal activity against Candida albicans NCIM 3471 after 72 hr by broth dilution assay; type: functional; conditions: NCIM 3471, 72 h
Rhodotorula mucilaginosa [31] = test: Antifungal activity against Rhodotorula mucilaginosa NCIM 3174 after 72 hr by broth dilution assay; type: functional; conditions: NCIM 3174, 72 h
Aspergillus flavus [32] = test: Antifungal activity against Aspergillus flavus NCIM 535 after 72 hr by broth dilution assay; type: functional; conditions: NCIM 535, 72 h
Penicillium chrysogenum [33] = test: Antifungal activity against Penicillium chrysogenum NCIM 707 after 72 hr by broth dilution assay; type: functional; conditions: NCIM 707, 72 h
Streptomyces albus [34] = test: Antibacterial activity against Streptomyces albus NCIM 2178 after 24 hr by broth dilution assay; type: functional; conditions: NCIM 2178, 24 h
Bacillus cereus [35] = test: Antibacterial activity against Bacillus cereus NCIM 2155 after 24 hr by broth dilution assay; type: functional; conditions: NCIM 2155, 24 h
Aspergillus niger [36] = test: Antifungal activity against Aspergillus niger NCIM 1196 after 72 hr by broth dilution assay; type: functional; conditions: NCIM 1196, 72 h

Question: Which results are given for `O=c1[nH]c(=S)[nH]c2nc3ccccc3cc12`?
Answer: zone of inhibition at 1000 µg/disc (Lipomyces lipofer [1]): 12 mm; zone of inhibition at 500 µg/disc (Lipomyces lipofer [2]): 9 mm; zone of inhibition at 1000 µg/disc (Candida albicans [3]): 11 mm; diameter of the inhibition zone (DIZ) (Candida albicans [4]): inactive; zone of inhibition at 1000 µg/disc (Rhodotorula mucilaginosa [5]): 12 mm; zone of inhibition at 500 µg/disc (Rhodotorula mucilaginosa [6]): 10 mm; zone of inhibition at 1000 µg/disc (Aspergillus flavus [7]): 15 mm; zone of inhibition at 500 µg/disc (Aspergillus flavus [8]): 9 mm; zone of inhibition at 1000 µg/disc (Aspergillus niger [9]): 10 mm; diameter of the inhibition zone (DIZ) (Aspergillus niger [10]): inactive; zone of inhibition at 1000 µg/disc (Penicillium chrysogenum [11]): 12 mm; zone of inhibition at 500 µg/disc (Penicillium chrysogenum [12]): 10 mm; zone of inhibition at 1000 µg/disc (Streptomyces albus [13]): 12 mm; diameter of the inhibition zone (DIZ) (Streptomyces albus [14]): inactive; zone of inhibition at 1000 µg/disc (Bacillus cereus [15]): 11 mm; zone of inhibition at 500 µg/disc (Bacillus cereus [16]): 8 mm; zone of inhibition at 1000 µg/disc (Bacillus subtilis [17]): 10 mm; diameter of the inhibition zone (DIZ) (Bacillus subtilis [18]): inactive; zone of inhibition at 1000 µg/disc (Klebsiella aerogenes [19]): 13 mm; zone of inhibition at 500 µg/disc (Klebsiella aerogenes [20]): 10 mm; zone of inhibition at 1000 µg/disc (Pseudomonas aeruginosa [21]): 11 mm; zone of inhibition at 500 µg/disc (Pseudomonas aeruginosa [22]): 10 mm; zone of inhibition at 1000 µg/disc (Escherichia coli [23]): 10 mm; zone of inhibition at 500 µg/disc (Escherichia coli [24]; NCIM 2065, 24 h, read-out: DIZ): 9 mm; MIC (Bacillus subtilis [25]): 62.5 µg/mL (≈ 273 µM); MIC (Klebsiella aerogenes [26]): 3.9 µg/mL (≈ 17 µM); MIC (Pseudomonas aeruginosa [27]): 31.2 µg/mL (≈ 136 µM); MIC (Escherichia coli [28]): 31.2 µg/mL (≈ 136 µM); MIC (Lipomyces lipofer [29]): 125 µg/mL (≈ 545 µM); MIC (Candida albicans [30]): 125 µg/mL (≈ 545 µM); MIC (Rhodotorula mucilaginosa [31]): 15.6 µg/mL (≈ 68 µM); MIC (Aspergillus flavus [32]): 7.8 µg/mL (≈ 34 µM); MIC (Penicillium chrysogenum [33]): 7.8 µg/mL (≈ 34 µM); MIC (Streptomyces albus [34]): 62.5 µg/mL (≈ 273 µM); MIC (Bacillus cereus [35]): 31.2 µg/mL (≈ 136 µM)

Question: `Cc1ccc2nc3[nH]c(=O)[nH]c(=O)c3cc2c1` was tested. Which zone of inhibition at 1000 µg/disc (Lipomyces lipofer [1]) did it give?
Answer: 13 mm

Question: And the zone of inhibition at 500 µg/disc (Lipomyces lipofer [2])?
Answer: 11 mm

Question: What about the zone of inhibition at 1000 µg/disc (Candida albicans [3]) of the same compound?
Answer: 10 mm

Question: What about the zone of inhibition at 500 µg/disc (Candida albicans [4]; NCIM 3471, 72 h, read-out: DIZ) of the same compound?
Answer: 8 mm

Question: And the zone of inhibition at 1000 µg/disc (Rhodotorula mucilaginosa [5])?
Answer: 13 mm

Question: And the zone of inhibition at 500 µg/disc (Rhodotorula mucilaginosa [6])?
Answer: 9 mm

Question: What about the zone of inhibition at 1000 µg/disc (Aspergillus flavus [7]) of the same compound?
Answer: 10 mm

Question: And the zone of inhibition at 500 µg/disc (Aspergillus flavus [8])?
Answer: 9 mm

Question: What about the zone of inhibition at 1000 µg/disc (Aspergillus niger [9]) of the same compound?
Answer: 11 mm

Question: And the “diameter of the inhibition zone (DIZ)” value (Aspergillus niger [10])?
Answer: inactive

Question: And the zone of inhibition at 1000 µg/disc (Penicillium chrysogenum [11])?
Answer: 11 mm

Question: What about the zone of inhibition at 500 µg/disc (Penicillium chrysogenum [12]) of the same compound?
Answer: 10 mm

Question: What about the zone of inhibition at 1000 µg/disc (Streptomyces albus [13]) of the same compound?
Answer: 9 mm

Question: And the “diameter of the inhibition zone (DIZ)” value (Streptomyces albus [14])?
Answer: inactive

Question: What about the zone of inhibition at 1000 µg/disc (Bacillus cereus [15]) of the same compound?
Answer: 13 mm

Question: And the zone of inhibition at 500 µg/disc (Bacillus cereus [16])?
Answer: 11 mm

Question: What about the zone of inhibition at 1000 µg/disc (Bacillus subtilis [17]) of the same compound?
Answer: 11 mm

Question: And the zone of inhibition at 500 µg/disc (Bacillus subtilis [18]; NCIM 2063, 24 h, read-out: DIZ)?
Answer: 9 mm

Question: What about the zone of inhibition at 1000 µg/disc (Klebsiella aerogenes [19]) of the same compound?
Answer: 11 mm

Question: What about the zone of inhibition at 500 µg/disc (Klebsiella aerogenes [20]) of the same compound?
Answer: 10 mm

Question: What about the zone of inhibition at 1000 µg/disc (Pseudomonas aeruginosa [21]) of the same compound?
Answer: 17 mm

Question: And the zone of inhibition at 500 µg/disc (Pseudomonas aeruginosa [22])?
Answer: 16 mm

Question: And the zone of inhibition at 1000 µg/disc (Escherichia coli [23])?
Answer: 12 mm

Question: And the “diameter of the inhibition zone (DIZ)” value (Escherichia coli [24])?
Answer: inactive

Question: What about the MIC (Bacillus subtilis [25]) of the same compound?
Answer: 15.6 µg/mL (≈ 68.7 µM)

Question: And the MIC (Klebsiella aerogenes [26])?
Answer: 7.8 µg/mL (≈ 34.3 µM)

Question: What about the MIC (Pseudomonas aeruginosa [27]) of the same compound?
Answer: 3.9 µg/mL (≈ 17.2 µM)

Question: And the MIC (Escherichia coli [28])?
Answer: 7.8 µg/mL (≈ 34.3 µM)

Question: And the MIC (Lipomyces lipofer [29])?
Answer: 15.6 µg/mL (≈ 68.7 µM)

Question: What about the MIC (Candida albicans [30]) of the same compound?
Answer: 15.6 µg/mL (≈ 68.7 µM)

Question: And the MIC (Rhodotorula mucilaginosa [31])?
Answer: 7.8 µg/mL (≈ 34.3 µM)

Question: What about the MIC (Aspergillus flavus [32]) of the same compound?
Answer: 7.8 µg/mL (≈ 34.3 µM)

Question: And the MIC (Aspergillus niger [36])?
Answer: 31.2 µg/mL (≈ 137 µM)

Question: What about the MIC (Penicillium chrysogenum [33]) of the same compound?
Answer: 15.6 µg/mL (≈ 68.7 µM)

Question: And the MIC (Streptomyces albus [34])?
Answer: 62.5 µg/mL (≈ 275 µM)

Question: What about the MIC (Bacillus cereus [35]) of the same compound?
Answer: 7.8 µg/mL (≈ 34.3 µM)
